{"source": "patent US20240173298A1", "about": "“COMPOSITION FOR AMELIORATING OR SUPPRESSING DECLINE OF KIDNEY FUNCTIONS” (SUNTORY HOLDINGS LIMITED, priority 2021, published 2024)", "key": {"[1]": {"conditions": "mice, oral administration, versus mice not administered; cited from earlier work"}, "[2]": {"experiment": "Study on evaluation of blood renal function markers in humans (placebo-controlled, randomized, double-blind, parallel-group)", "type": "in vivo", "conditions": "one capsule with 20 mg L-ergothioneine per day, oral, four weeks, week 4 minus pre-testing, versus control food group", "procedure": "In order to evaluate the influence of supplements containing ergothioneine on blood renal function marker levels in humans, a placebo-controlled, randomized, double-blind, parallel-group study was conducted on subjects including male and female adults (46 subjects in a test food group; 46 subjects in a control food group; 92 subjects in total). In this study, one capsule containing 20 mg ergothioneine (test food) or one capsule not containing ergothioneine (control food) was fed per day for four weeks. Blood renal function marker levels of each subject were measured for pre-testing before starting the study (before starting ingestion of the test food or control food). After ingestion of the test food or control food for four weeks, blood renal function marker levels of each subject were measured again (testing on week 4). Renal function markers used for measurement were BUN, uric acid, and creatinine. […] For each subject, the BUN level measured at the time of pre-testing was subtracted from the BUN level measured at the time of testing on week 4 ((level measured at the time of testing on week 4)—(level measured at the time of pre-testing)) to determine Δ in level (the amount of change in BUN level) (mg/dL). […] For each subject, the uric acid level measured at the time of pre-testing was subtracted from the uric acid level measured at the time of testing on week 4 ((level measured at the time of testing on week 4)−(level measured at the time of pre-testing)) to determine Δ in level (the amount of change in uric acid level) (mg/dL). […] For each subject, the creatinine level measured at the time of pre-testing was subtracted from the creatinine level measured at the time of testing on week 4 ((level measured at the time of testing on week 4)−(level measured at the time of pre-testing)) to determine Δ in level (the amount of change in creatinine level) (mg/dL). […]"}}, "data": [{"compound": "C[N+](C)(C)[C@@H](Cc1c[nH]c(=S)[nH]1)C(=O)[O-]", "note": "[L-ergothioneine]", "values": [{"measurement": "peritesticular fat weight", "setting": "[1]", "result": "lower"}, {"measurement": "triglyceride (neutral fat) level in plasma", "setting": "[1]", "result": "lower"}, {"measurement": "change in BUN level (Δ in BUN)", "setting": "[2]", "result": "reduced"}, {"measurement": "change in blood creatinine level (Δ in creatinine)", "setting": "[2]", "result": "reduced"}, {"measurement": "change in blood uric acid level (Δ in uric acid)", "setting": "[2]", "result": "reduced"}]}]}
